Experimental findings from patent US9198891B2, “Method of treating cancer by inhibition of protein kinase-like endoplasmic reticulum protein kinase” (New York University, priority 2010, dated 2015) are described below.

The test system of the assay is Mouse PERK. The experiment in a line: In vitro kinase inhibition assay: PERK-mediated eIF2α phosphorylation. The assay is classed as biochemical. Particulars: for Activity (ability to inhibit PERK-mediated eIF2α phosphorylation in vitro): compounds selected in the initial VLS; for relative inhibition of PERK among the six active compounds: initial VLS screening; for inhibition of PERK-dependent eIF2α phosphorylation in vitro: tested at 10 μM (FIG. 1C). The method, then:
Mouse PERK proteins comprising the cytoplasmic portion of the molecule with the delta loop deleted were pre-incubated with varying concentrations of compound at room temperature for 10 minutes. This construct thus contains close to a minimal catalytic domain of PERK, closely similar but not identical to SEQ ID NO: 1. The kinase reaction was initiated by the addition of 2 μM ATP, 0.2 μM γ-[^32P]ATP, 10 μM eIF2α and allowed to proceed at room temperature for 15 minutes (Marciniak et al., “Activation-Dependent Substrate Recruitment by the Eukaryotic Translation Initiation Factor 2 Kinase PERK,” J Cell Biol 172: 201-9 (2006), which is hereby incorporated by reference in its entirety). The phosphorylated eIF2α was then separated on 14% SDS-PAGE and visualized by autoradiography. To determine the selectivity of the compounds, their ability to inhibit protein kinase PKA was also evaluated. Briefly, PKA was pre-incubated with the compound at 40 μM, the highest concentration used in the PERK assay, for 10 minutes. Then, 10 μM ATP, 0.2 μM γ-[^32P]ATP and 10 μM GSTag were added, followed by the incubation at room temperature for 15 minutes.

As for `O=C(CNC(=O)c1ccco1)N/N=C/c1ccc(O)cc1` [Compound A2], the “Activity (ability to inhibit PERK-mediated eIF2α phosphorylation in vitro)” value is “inactive”.

Take `O=C(Nc1cccc(Oc2ccc3c(c2)C(=O)N(c2ccc(O)cc2)C3=O)c1)c1ccco1` [Compound B6]: the “Activity (ability to inhibit PERK-mediated eIF2α phosphorylation in vitro)” value was “active”. On the same count and under the same terms, the result for `CCC(Oc1ccccc1)C(=O)Nc1sc2c(c1C(N)=O)CCC(C(C)(C)C)C2` (stereo not drawn) [Compound B2] reads “active”. The same measure, in the same setting: the result for `Cc1ccc(OCCOCCOc2ccccc2/C=C2\SC(=N)NC2=O)cc1` [Compound C1] reads “active”; that for `CCC(Sc1nnc(COc2ccccc2C)n1C)C(=O)Nc1ccc(C(C)=O)cc1` (stereo not drawn) [Compound D4], “inactive”; that for `CCOC(=O)c1c(NC(=O)CSc2nc(N)cc(=O)[nH]2)sc2c1CCC2` [Compound E1], “active”.

As to `NS(=O)(=O)c1ccc(CNC(=O)/C=C/c2ccc3c(c2)OCO3)cc1` [Compound C6], the “Activity (ability to inhibit PERK-mediated eIF2α phosphorylation in vitro)” value was “inactive”. On the same count and under the same terms, the result for `ON=C1CC2C3CC(C12)C1/C(=N\O)CC31` (stereo not drawn) [Compound A1] reads “inactive”. `O=C(COc1ccccc1)NC(=S)Nc1ccc(O)c(-c2nc3ccccc3s2)c1` [Compound D1]: the “concentration range over which PERK inhibition is displayed” value fell in the range of 1 to 25 µM, the “Activity (ability to inhibit PERK-mediated eIF2α phosphorylation in vitro)” value is given as “active”, the “relative inhibition of PERK among the six active compounds” value is given as “relatively stronger inhibition of PERK” and the “inhibition of PERK-dependent eIF2α phosphorylation in vitro” value was “active”. With `COc1cc(/C=N\N(C)c2nc(-c3ccccc3)cc(-c3ccc(Br)cc3)n2)ccc1O` [Compound A4], the “concentration range over which PERK inhibition is displayed” value is “narrow range of concentration”, the “Activity (ability to inhibit PERK-mediated eIF2α phosphorylation in vitro)” value was “active”, the “relative inhibition of PERK among the six active compounds” value is “relatively stronger inhibition of PERK” and the “inhibition of PERK-dependent eIF2α phosphorylation in vitro” value is “active”. With `O=C(Nc1ccc(O)cc1C(=O)O)c1ccc(C(=O)Nc2ccc(O)cc2C(=O)O)cc1` [Compound C3], the “Activity (ability to inhibit PERK-mediated eIF2α phosphorylation in vitro)” value was “inactive”. The same measure, in the same setting: the result for `Cc1ccccc1N1C(=O)CC(SC(=N)N/N=C/c2ccc(O)c(O)c2)C1=O` (stereo not drawn) [Compound A3] reads “inactive”.
